Test results: US20160075653A1, “NEMATICIDAL N-(PHENYLCYCLOALKYL)CARBOXAMIDES AND N-(PHENYLCYCLOALKYL)THIOCARBOXAMIDES” (BAYER CROPSCIENCE AKTIENGESELLSCHAFT, priority 2013, published 2016)

Test: Measurement of log P values by HPLC on reversed phase columns (methods [a] pH 2.3, [b] pH 2.7, [c] pH 7.8)
Format: physicochemical
Settings: HPLC reversed phase
Procedure, shortened: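 Retention times were converted to log P by linear interpolation between linear alkan-2-one standards (3 to 16 carbons) of known log P. Eluents, each with 10% to 95% acetonitrile gradient: phosphoric acid 0.1% at pH 2.3 [a]; formic acid 0.1% at pH 2.7, LC-MS [b]; ammonium hydrogen carbonate 0.001 molar at pH 7.8, LC-MS [c].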

Structure (SMILES) | logP (method [b] (pH 2.7)) | logP (method [c] pH 7.8)
Cc1nc(C)c(C(=O)NC2CCCC2c2ccccc2Cl)s1 (stereo not shown) [Example 291] | 2.73^[b] | –
Cc1nn(C)cc1C(=O)NC1CCCC1c1ccccc1Cl (stereo not shown) [Example 292] | 2.24^[b] | –
O=C(NC1CCCC1c1ccccc1Cl)c1cccnc1Cl (stereo not shown) [Example 293] | 2.64^[b] | –
O=C(NC1CCCC1c1ccccc1Cl)c1ccccc1Cl (stereo not shown) [Example 294] | 3.42^[b] | –
O=C(NC1CCCC1c1ccccc1Cl)c1ccccc1I (stereo not shown) [Example 295] | 3.51^[b] | –
O=C(NC1CCCC1c1ccccc1C(F)(F)F)c1ccccc1Cl (stereo not shown) [Example 300] | 3.56^[b] | –
O=C(NC1CCCC1c1ccccc1C(F)(F)F)c1cccnc1Cl (stereo not shown) [Example 301] | 2.90^[b] | –
O=C(NC1CCCC1c1ccc(C(F)(F)F)cc1)c1ccccc1Cl (stereo not shown) [Example 305] | 3.68^[b] | 3.63^[c];
CN(C(=O)c1ccccc1C(F)(F)F)C1CCCC1c1ccc(C(F)(F)F)cc1 (stereo not shown) [Example 307] | 4.46^[b] | 4.40^[c];
Cc1nc(C)c(C(=O)NC2CCCC2c2ccccc2C(F)(F)F)s1 (stereo not shown) [Example 308] | 2.97^[b] | –
O=C(NC1CCCC1c1ccccc1C(F)(F)F)c1cccnc1C(F)(F)F (stereo not shown) [Example 309] | 3.22^[b] | –
Cc1nn(C)cc1C(=O)NC1CCCC1c1ccccc1C(F)(F)F (stereo not shown) [Example 310] | 2.47^[b] | –
Cc1nc(C)c(C(=O)NC2CCCC2c2c(F)cccc2F)s1 (stereo not shown) [Example 312] | 2.65^[b] | –
O=C(NC1CCCC1c1c(F)cccc1F)c1c(F)cccc1F (stereo not shown) [Example 314] | 3.05^[b] | –
O=C(NC1CCCC1c1ccccc1C(F)(F)F)c1c(F)cccc1F (stereo not shown) [Example 320] | 3.38^[b] | –
O=C(NC1CCCC1c1c(F)cccc1F)c1cccnc1Cl (stereo not shown) [Example 321] | 2.51^[b] | –
Cc1nn(C)cc1C(=O)NC1CCCC1c1c(F)cccc1F (stereo not shown) [Example 324] | 2.13^[b] | –
Cc1nc(C)c(C(=O)NC2CCCC2c2ccccc2Br)s1 (stereo not shown) [Example 344] | 2.86^[b] | –
Cc1nn(C)cc1C(=O)NC1CCCC1c1ccccc1Br (stereo not shown) [Example 345] | 3.69^[b] | –
O=C(NC1CCCC1c1ccccc1Br)c1c(F)cccc1F (stereo not shown) [Example 347] | 3.35^[b] | –
O=C(NC1CCCC1c1ccc(Cl)cc1Cl)c1c(F)cccc1F (stereo not shown) [Example 350] | 3.73^[b] | –
O=C(NC1CCCC1c1ccc(Cl)cc1Cl)c1ccccc1Cl (stereo not shown) [Example 351] | 3.87^[b] | –

Structure (SMILES) | logP (method [b] (pH 2.7)) | logP (method [c] pH 7.8)
Cc1nc(C)c(C(=O)NC2CCCC2c2ccc(Cl)cc2Cl)s1 (stereo not shown) [Example 354] | 3.24^[b] | –
O=C(NC1CCCC1c1ccccc1Br)c1ccccc1C(F)(F)F (stereo not shown) [Example 355] | 3.71^[b] | –
O=C(NC1CCCC1c1ccc(Cl)cc1Cl)c1cccnc1Cl (stereo not shown) [Example 356] | 3.20^[b] | –
O=C(NC1CCCC1c1ccccc1Br)c1ccccc1I (stereo not shown) [Example 357] | 3.67^[b] | –
Cc1nn(C)cc1C(=O)NC1CCCC1c1ccc(Cl)cc1Cl (stereo not shown) [Example 359] | 2.67^[b] | –
O=C(NC1CCCC1c1ccccc1Cl)c1cccnc1C(F)(F)F (stereo not shown) [Example 361] | 3.01^[b] | –
O=C(NC1CCCC1c1c(F)cccc1F)c1cccnc1C(F)(F)F (stereo not shown) [Example 362] | 2.86^[b] | –
O=C(NC1CCCC1c1ccc(C(F)(F)F)cc1)c1ccccc1I (stereo not shown) [Example 363] | 3.86^[b] | 3.79^[c];
O=C(NC1CCCCC1c1ccc(Cl)cc1)c1ccccc1C(F)(F)F (stereo not shown) [Example 364] | 3.84^[b] | –
O=C(NC1CCCCC1c1ccc(C(F)(F)F)cc1)c1ccccc1C(F)(F)F (stereo not shown) [Example 365] | 4.12^[b] | 4.05^[c];
Cc1nc(C)c(C(=O)NC2CCCCC2c2ccc(Cl)cc2)s1 (stereo not shown) [Example 366] | 3.03^[b] | –
Cc1nn(C)cc1C(=O)NC1CCCCC1c1ccc(Cl)cc1 (stereo not shown) [Example 367] | 2.49^[b] | –
O=C(NC1CCCCC1c1ccc(Cl)cc1)c1cccnc1C(F)(F)F (stereo not shown) [Example 368] | 3.31^[b] | –
O=C(NC1CCCCC1c1ccc(Cl)cc1)c1c(F)cccc1F (stereo not shown) [Example 369] | 3.50^[b] | –
O=C(NC1CCCCC1c1ccc(Cl)cc1)c1cccnc1Cl (stereo not shown) [Example 370] | 2.99^[b] | –
O=C(NC1CCCCC1c1ccc(Cl)cc1)c1ccccc1Cl (stereo not shown) [Example 371] | 3.65^[b] | –
O=C(NC1CCCCC1c1ccc(Cl)cc1)c1ccccc1I (stereo not shown) [Example 372] | 3.84^[b] | –
O=C(NC1CCCCC1c1ccccc1C(F)(F)F)c1ccccc1I (stereo not shown) [Example 373] | 4.22^[b] | –
O=C(NC1CCCCC1c1ccccc1C(F)(F)F)c1ccccc1C(F)(F)F (stereo not shown) [Example 374] | 4.21^[b] | –
O=C(NC1CCCCC1c1ccccc1C(F)(F)F)c1cccnc1C(F)(F)F (stereo not shown) [Example 375] | 3.68^[b] | –
Cc1nc(C)c(C(=O)NC2CCCCC2c2ccccc2Cl)s1 (stereo not shown) [Example 376] | 3.24^[b] | –
Cc1nn(C)cc1C(=O)NC1CCCCC1c1ccccc1Cl (stereo not shown) [Example 377] | 2.64^[b] | –

Structure (SMILES) | logP (method [b] (pH 2.7)) | logP (method [c] pH 7.8)
O=C(NC1CCCCC1c1ccccc1Cl)c1cccnc1C(F)(F)F (stereo not shown) [Example 378] | 3.45^[b] | –
O=C(NC1CCCCC1c1ccccc1Cl)c1c(F)cccc1F (stereo not shown) [Example 379] | 3.67^[b] | –
O=C(NC1CCCCC1c1ccccc1Cl)c1cccnc1Cl (stereo not shown) [Example 380] | 3.16^[b] | –
O=C(NC1CCCCC1c1ccccc1Cl)c1ccccc1Cl (stereo not shown) [Example 381] | 3.88^[b] | –
O=C(NC1CCCCC1c1ccccc1Cl)c1ccccc1I (stereo not shown) [Example 382] | 4.02^[b] | –
O=C(NC1CCCCC1c1ccccc1Cl)c1ccccc1C(F)(F)F (stereo not shown) [Example 383] | 4.01^[b] | –
Cc1nn(C)cc1C(=O)NC1CCCCC1c1ccccc1C(F)(F)F (stereo not shown) [Example 384] | 2.87^[b] | –
O=C(NC1CCCCC1c1ccccc1C(F)(F)F)c1cccnc1C(F)(F)F (stereo not shown) [Example 385] | 3.61^[b] | –
O=C(NC1CCCCC1c1ccccc1C(F)(F)F)c1c(F)cccc1F (stereo not shown) [Example 386] | 3.80^[b] | –
O=C(NC1CCCCC1c1ccccc1C(F)(F)F)c1cccnc1Cl (stereo not shown) [Example 387] | 3.33^[b] | –
O=C(NC1CCCCC1c1ccccc1C(F)(F)F)c1ccccc1Cl (stereo not shown) [Example 388] | 4.02^[b] | –
O=C(NC1CCCCC1c1ccccc1C(F)(F)F)c1ccccc1I (stereo not shown) [Example 389] | 4.13^[b] | –
O=C(NC1CCCCC1c1ccccc1C(F)(F)F)c1ccccc1C(F)(F)F (stereo not shown) [Example 390] | 4.11^[b] | –
O=C(NC1CCCC1c1ccccc1Cl)c1c(F)cccc1F (stereo not shown) [Example 391] | 3.18^[b] | –
Cc1nc(C)c(C(=O)NC2CCCCC2c2ccccc2C(F)(F)F)s1 (stereo not shown) [Example 392] | 3.49^[b] | –
Cc1nn(C)cc1C(=O)NC1CCCCC1c1c(F)cccc1F (stereo not shown) [Example 393] | 2.51^[b] | –
Cc1nc(C)c(C(=O)NC2CCCCC2c2c(F)cccc2F)s1 (stereo not shown) [Example 394] | 3.16^[b] | –
O=C(NC1CCCCC1c1c(F)cccc1F)c1c(F)cccc1F (stereo not shown) [Example 395] | 3.44^[b] | –
O=C(NC1CCCCC1c1c(F)cccc1F)c1ccccc1Cl (stereo not shown) [Example 396] | 3.68^[b] | –
O=C(NC1CCCCC1c1c(F)cccc1F)c1cccnc1Cl (stereo not shown) [Example 397] | 2.99^[b] | –
O=C(NC1CCCCC1c1c(F)cccc1F)c1cccnc1C(F)(F)F (stereo not shown) [Example 398] | 3.26^[b] | –
O=C(NC1CCCCC1c1c(F)cccc1F)c1ccccc1C(F)(F)F (stereo not shown) [Example 399] | 3.87^[b] | –
